Data published in EP4667483A1, “HUMAN TRANSFERRIN RECEPTOR-BINDING PEPTIDE” (JCR Pharmaceuticals Co., Ltd., priority 2023, dated 2024).
Numbered stars: 1 amine (or outer) side, 2 acyl side, 3 side chain; on linkers, the order of the positions; unused ones are H or OH. Bridge positions count the residues as written; N and C are the ends. Square brackets hold non-standard residues; d marks the D form. Peptide text beside a SMILES is read from it. * marks the point of attachment. Trp(1-CH2COOH) = N[C@@H](Cc1cn(CC(=O)O)c2ccccc12)C(=O)O; NMePhe(4-COOH) = CN[C@@H](Cc1ccc(C(=O)O)cc1)C(=O)O; Nle(6-morpholino) = N[C@@H](CCCCN1CCOCC1)C(=O)O; X2 = O=C([C@H](Cc1cn(CCO)c2ccccc12)N[*:1])[*:2]; Phe(3-COOH) = N[C@@H](Cc1cccc(C(=O)O)c1)C(=O)O; NH(CH2CH2O)8Me = COCCOCCOCCOCCOCCOCCOCCOCCN*; NMePhe(3-Cl) = CN[C@@H](Cc1cccc(Cl)c1)C(=O)O; NMePhe(4-Cl) = CN[C@@H](Cc1ccc(Cl)cc1)C(=O)O; 3Pal(6-NH2) = Nc1ccc(C[C@H](N)C(=O)O)cn1; NMeY = CN[C@@H](Cc1ccc(O)cc1)C(=O)O; Nva(3-Et) = CCC(CC)[C@H](N)C(=O)O; PEG4 = NCCOCCOCCOCCOCCC(=O)O; Carboxymethyl = O=C(O)C*

What was measured:
Assay type in all cases: binding
[1] = molecular target: T1, human transferrin receptor (hTfR) (Homo sapiens, UniProt P02786); assay: SPR measurement under pH 6.0 conditions (Biacore T200, NTA chip, immobilized hTfR); details: SPR, pH 6.0; read-out: hTfR SPR pH6.0 KD
T1 sequence (P02786 whole entry): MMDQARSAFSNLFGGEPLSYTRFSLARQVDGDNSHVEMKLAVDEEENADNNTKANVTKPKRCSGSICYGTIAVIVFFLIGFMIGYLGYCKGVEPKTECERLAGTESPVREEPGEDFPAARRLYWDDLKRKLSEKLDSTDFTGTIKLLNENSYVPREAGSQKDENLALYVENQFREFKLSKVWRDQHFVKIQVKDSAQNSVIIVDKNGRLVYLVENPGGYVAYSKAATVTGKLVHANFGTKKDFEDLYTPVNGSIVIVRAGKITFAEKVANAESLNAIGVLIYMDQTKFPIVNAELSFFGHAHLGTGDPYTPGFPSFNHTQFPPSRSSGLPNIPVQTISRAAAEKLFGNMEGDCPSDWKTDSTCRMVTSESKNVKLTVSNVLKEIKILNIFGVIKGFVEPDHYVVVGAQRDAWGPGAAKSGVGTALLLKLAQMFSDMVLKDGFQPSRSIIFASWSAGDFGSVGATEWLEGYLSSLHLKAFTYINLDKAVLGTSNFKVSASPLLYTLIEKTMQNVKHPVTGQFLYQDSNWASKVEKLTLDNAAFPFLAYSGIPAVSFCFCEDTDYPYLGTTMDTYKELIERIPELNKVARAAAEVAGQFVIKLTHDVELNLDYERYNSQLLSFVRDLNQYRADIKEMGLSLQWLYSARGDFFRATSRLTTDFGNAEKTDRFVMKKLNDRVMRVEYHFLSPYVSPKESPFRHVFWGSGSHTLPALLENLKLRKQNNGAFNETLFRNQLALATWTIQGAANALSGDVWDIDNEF

[2] = molecular target: T1, human transferrin receptor (hTfR); assay: Evaluation of pH dependence (ratio of SPR koff or KD at pH 6.0 to pH 7.4); details: ratio of koff at pH 6.0 to pH 7.4
Protocol: The ratio of the calculated koff or KD values under pH 6.0 conditions to those under pH 7.4 conditions was calculated to check pH dependency.

[3] = molecular target: T1, human transferrin receptor (hTfR); assay: SPR measurement under pH 7.4 conditions (Biacore T200, CM3 chip, hTfR captured by His Tag antibody); details: SPR, pH 7.4; read-out: hTfR SPR pH7.4 KD

Row | Kd [1] | dependency koff pH6.0/7.4 [2] | Kd [3] | SMILES
1 | 0.00633 µM | 34.44 | 0.00162 µM | CCC(CC)[C@@H]1NC(=O)[C@H](Cc2ccc(OCC(=O)O)cc2)NC(=O)[C@H](Cc2ccc(O)cc2)NC(=O)[C@H](CC(N)=O)NC(=O)[C@H](Cc2c[nH]c3ccccc23)NC(=O)[C@H](C(C)C)NC(=O)[C@H](Cc2cccc(Cl)c2)N(C)C(=O)[C@H](C(C)C)NC(=O)[C@H](C)NC(=O)CSC[C@@H](C(=O)NCCOCCOCCOCCOCCC(N)=O)NC(=O)[C@H](Cc2ccc(O)cc2)N(C)C(=O)[C@H](Cc2cccc(C(=O)O)c2)NC(=O)[C@H](CCCNC(=N)N)NC(=O)[C@H](CCC(N)=O)NC(=O)[C@H]([C@@H](C)CC)NC1=O [compound 75] ({CH2CO}-AV[NMePhe(3-Cl)]VWNYY(Carboxymethyl)[Nva(3-Et)]IQR[Phe(3-COOH)][NMeY]C[PEG4]-NH2; thioether N-15)
2 | 0.252 µM | 20.39 | 0.0271 µM | CCC(CC)[C@@H]1NC(=O)[C@H](Cc2ccc(OCC(=O)O)cc2)NC(=O)[C@H](Cc2ccc(N)nc2)NC(=O)[C@H](CC(N)=O)NC(=O)[C@H](Cc2c[nH]c3ccccc23)NC(=O)[C@H](C(C)C)NC(=O)[C@H](Cc2cccc(Cl)c2)N(C)C(=O)[C@H](C(C)C)NC(=O)[C@H](C)NC(=O)CSC[C@@H](C(=O)NCCOCCOCCOCCOCCC(N)=O)NC(=O)[C@H](Cc2ccc(O)cc2)N(C)C(=O)[C@H](Cc2cccc(C(=O)O)c2)NC(=O)[C@H](CCCNC(=N)N)NC(=O)[C@H](CCC(=O)NCCOCCOCCOCCOCCOCCOCCOCCOC)NC(=O)[C@H]([C@@H](C)CC)NC1=O [compound 82] ({CH2CO}-AV[NMePhe(3-Cl)]VWN[3Pal(6-NH2)]Y(Carboxymethyl)[Nva(3-Et)]IE(NH(CH2CH2O)8Me)R[Phe(3-COOH)][NMeY]C[PEG4]-NH2; thioether N-15)
3 | 0.144 µM | 32.62 | 0.0437 µM | CCC(CC)[C@@H]1NC(=O)[C@H](Cc2ccc(OCC(=O)O)cc2)NC(=O)[C@H](Cc2ccc(N)nc2)NC(=O)[C@H](CC(N)=O)NC(=O)[C@H](Cc2cn(CC(=O)O)c3ccccc23)NC(=O)[C@H](C(C)C)NC(=O)[C@H](Cc2cccc(Cl)c2)N(C)C(=O)[C@H](C(C)C)NC(=O)[C@H](C)NC(=O)CSC[C@@H](C(=O)NCCOCCOCCOCCOCCC(N)=O)NC(=O)[C@H](Cc2ccc(O)cc2)N(C)C(=O)[C@H](Cc2cccc(C(=O)O)c2)NC(=O)[C@H](CCCCN2CCOCC2)NC(=O)[C@H](CCCCN2CCOCC2)NC(=O)[C@H]([C@@H](C)CC)NC1=O [compound 83] ({CH2CO}-AV[NMePhe(3-Cl)]V[Trp(1-CH2COOH)]N[3Pal(6-NH2)]Y(Carboxymethyl)[Nva(3-Et)]I[Nle(6-morpholino)][Nle(6-morpholino)][Phe(3-COOH)][NMeY]C[PEG4]-NH2; thioether N-15)
4 | 0.219 µM | 17.42 | 1.91 µM | CCC(CC)[C@@H]1NC(=O)[C@H](Cc2ccc(OCC(=O)O)cc2)NC(=O)[C@H](Cc2ccc(N)nc2)NC(=O)[C@H](CC(N)=O)NC(=O)[C@H](Cc2cn(CC(=O)O)c3ccccc23)NC(=O)[C@H](C(C)C)NC(=O)[C@H](Cc2cccc(Cl)c2)N(C)C(=O)[C@H](C(C)C)NC(=O)[C@H](C)NC(=O)CSC[C@@H](C(=O)NCCOCCOCCOCCOCCC(N)=O)NC(=O)[C@H](Cc2ccc(O)cc2)N(C)C(=O)[C@H](Cc2cccc(C(=O)O)c2)NC(=O)[C@H](CCCNC(=N)N)NC(=O)[C@H](CCC(N)=O)NC(=O)[C@H]([C@@H](C)CC)NC1=O [compound 84] ({CH2CO}-AV[NMePhe(3-Cl)]V[Trp(1-CH2COOH)]N[3Pal(6-NH2)]Y(Carboxymethyl)[Nva(3-Et)]IQR[Phe(3-COOH)][NMeY]C[PEG4]-NH2; thioether N-15)
5 | 0.466 µM | 17.51 | 0.175 µM | CCC(CC)[C@@H]1NC(=O)[C@H](Cc2ccc(OCC(=O)O)cc2)NC(=O)[C@H](Cc2ccc(N)nc2)NC(=O)[C@H](CC(N)=O)NC(=O)[C@H](Cc2cn(CC(=O)O)c3ccccc23)NC(=O)[C@H](C(C)C)NC(=O)[C@H](Cc2cccc(Cl)c2)N(C)C(=O)[C@H](C(C)C)NC(=O)[C@H](C)NC(=O)CSC[C@@H](C(=O)NCCOCCOCCOCCOCCC(N)=O)NC(=O)[C@H](Cc2ccc(C(=O)O)cc2)N(C)C(=O)[C@H](Cc2cccc(C(=O)O)c2)NC(=O)[C@H](CCCNC(=N)N)NC(=O)[C@H](CCC(N)=O)NC(=O)[C@H]([C@@H](C)CC)NC1=O [compound 87] ({CH2CO}-AV[NMePhe(3-Cl)]V[Trp(1-CH2COOH)]N[3Pal(6-NH2)]Y(Carboxymethyl)[Nva(3-Et)]IQR[Phe(3-COOH)][NMePhe(4-COOH)]C[PEG4]-NH2; thioether N-15)
6 | 0.0511 µM | 8.60 | 0.00696 µM | CCC(CC)[C@@H]1NC(=O)[C@H](Cc2ccc(OCC(=O)O)cc2)NC(=O)[C@H](Cc2ccc(O)cc2)NC(=O)[C@H](CC(N)=O)NC(=O)[C@H](Cc2cn(CC(=O)O)c3ccccc23)NC(=O)[C@H](C(C)C)NC(=O)[C@H](Cc2cccc(Cl)c2)N(C)C(=O)[C@H](C(C)C)NC(=O)[C@H](C)NC(=O)CSC[C@@H](C(=O)NCCOCCOCCOCCOCCC(N)=O)NC(=O)[C@H](Cc2ccc(O)cc2)N(C)C(=O)[C@H](Cc2cccc(C(=O)O)c2)NC(=O)[C@H](CCCNC(=N)N)NC(=O)[C@H](CCC(N)=O)NC(=O)[C@H]([C@@H](C)CC)NC1=O [compound 88] ({CH2CO}-AV[NMePhe(3-Cl)]V[Trp(1-CH2COOH)]NYY(Carboxymethyl)[Nva(3-Et)]IQR[Phe(3-COOH)][NMeY]C[PEG4]-NH2; thioether N-15)
7 | 0.0441 µM | 5.47 | 0.0138 µM | CCC(CC)[C@@H]1NC(=O)[C@H](Cc2ccc(OCC(=O)O)cc2)NC(=O)[C@H](Cc2ccc(O)cc2)NC(=O)[C@H](CC(N)=O)NC(=O)[C@H](Cc2cn(CC(=O)O)c3ccccc23)NC(=O)[C@H](C(C)C)NC(=O)[C@H](Cc2cccc(Cl)c2)N(C)C(=O)[C@H](C(C)C)NC(=O)[C@H](C)NC(=O)CSC[C@@H](C(=O)NCCOCCOCCOCCOCCC(N)=O)NC(=O)[C@H](Cc2ccc(Cl)cc2)N(C)C(=O)[C@H](Cc2cccc(C(=O)O)c2)NC(=O)[C@H](CCCNC(=N)N)NC(=O)[C@H](CCC(N)=O)NC(=O)[C@H]([C@@H](C)CC)NC1=O [compound 92] ({CH2CO}-AV[NMePhe(3-Cl)]V[Trp(1-CH2COOH)]NYY(Carboxymethyl)[Nva(3-Et)]IQR[Phe(3-COOH)][NMePhe(4-Cl)]C[PEG4]-NH2; thioether N-15)

Row | SMILES | Kd [1] | dependency koff pH6.0/7.4 [2] | Kd [3]
8 | CC[C@H](C)[C@@H]1NC(=O)[C@H](Cc2ccc(OCC(=O)O)cc2)NC(=O)[C@H](Cc2ccc(O)cc2)NC(=O)[C@H](CC(N)=O)NC(=O)[C@H](Cc2cn(CCO)c3ccccc23)NC(=O)[C@H](C(C)C)NC(=O)[C@H](Cc2cccc(Cl)c2)N(C)C(=O)[C@H](C(C)C)NC(=O)[C@H](C)NC(=O)CSC[C@@H](C(=O)NCCOCCOCCOCCOCCC(N)=O)NC(=O)[C@H](Cc2ccc(O)cc2)N(C)C(=O)[C@H](Cc2cccc(C(=O)O)c2)NC(=O)[C@H](CCCNC(=N)N)NC(=O)[C@H](CCC(N)=O)NC(=O)[C@H]([C@@H](C)O)NC1=O [compound 76] ({CH2CO}-AV[NMePhe(3-Cl)]V[X2]NYY(Carboxymethyl)ITQR[Phe(3-COOH)][NMeY]C[PEG4]-NH2; thioether N-15) | 0.017 µM | 3.37 | 0.013 µM
